Source: patent publication US8952024B2, “Herbicidal pyrimidone derivatives” (E I du Pont de Nemours and Company, priority 2009, dated 2015)

What was measured:
Type in all cases: in vivo
[1] = tested on: blackgrass (Alopecurus myosuroides); experiment: Test B pre-/postemergence plant response; details: for Blackgrass plant response rating (0 to 100 scale): 62 g ai/ha, 0 is no effect, 13 to 15 days
Method in brief: (§1)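 Steps: sow seed in loam–sand soil and spray preemergence, or grow plants in peat-based medium to 1–4 leaves (2–18 cm) and spray postemergence; formulation is non-phytotoxic solvent plus surfactant; hold in greenhouse 13–15 days; score visually vs controls, 0 = no effect, 100 = complete control.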

[2] = tested on: lambsquarters (Chenopodium album); experiment: Test B pre-/postemergence plant response; details: for Lambsquarters plant response rating (0 to 100 scale): 62 g ai/ha, 0 is no effect, 13 to 15 days
Method in brief: as §1

[3] = tested on: green foxtail (Setaria viridis); experiment: Test B pre-/postemergence plant response; details: for Foxtail, Green plant response rating (0 to 100 scale): 62 g ai/ha, 0 is no effect, 13 to 15 days
Method in brief: as §1

[4] = tested on: goosegrass (Eleusine indica); experiment: Test B pre-/postemergence plant response; details: for Goosegrass plant response rating (0 to 100 scale): 62 g ai/ha, 0 is no effect, 13 to 15 days
Method in brief: as §1

[5] = tested on: Surinam grass (Brachiaria decumbens); experiment: Test B pre-/postemergence plant response; details: for Surinam Grass plant response rating (0 to 100 scale): 62 g ai/ha, postemergence, 0 is no effect, 100 is complete control, 13 to 15 days; for Plant response rating, Surinam Grass: Postemergence, scale 0 to 100 (0 no effect, 100 complete control)
Method in brief: as §1

[6] = tested on: giant foxtail (Setaria faberii); experiment: Test B pre-/postemergence plant response; details: for Foxtail, Giant plant response rating (0 to 100 scale): 62 g ai/ha, 0 is no effect, 13 to 15 days
Method in brief: as §1

[7] = tested on: johnsongrass (Sorghum halepense); experiment: Test B pre-/postemergence plant response; details: for Johnsongrass plant response rating (0 to 100 scale): 62 g ai/ha, 0 is no effect, 13 to 15 days
Method in brief: as §1

corn (Zea mays) = experiment: Test B pre-/postemergence plant response; details: for Corn plant response rating (0 to 100 scale): 62 g ai/ha, 0 is no effect, 13 to 15 days
Method in brief: as §1

wild oat (Avena fatua) = experiment: Test B pre-/postemergence plant response; details: for Oat, Wild plant response rating (0 to 100 scale): 62 g ai/ha, 0 is no effect, 13 to 15 days
Method in brief: as §1

[8] = tested on: pigweed (Amaranthus retroflexus); experiment: Test B pre-/postemergence plant response; details: for Pigweed plant response rating (0 to 100 scale): 62 g ai/ha, 0 is no effect, 13 to 15 days
Method in brief: as §1

[9] = tested on: ragweed (common ragweed, Ambrosia elatior); experiment: Test B pre-/postemergence plant response; details: for Ragweed plant response rating (0 to 100 scale): 62 g ai/ha, postemergence, 0 is no effect, 100 is complete control, 13 to 15 days; for Plant response rating, Ragweed: Postemergence, scale 0 to 100 (0 no effect, 100 complete control)
Method in brief: as §1

[10] = tested on: umbrella sedge (Cyperus difformis); experiment: Test B flooded paddy test; details: for Plant response rating, Flood, Sedge, Umbrella: 250 g ai/ha, flooded paddy test, visual rating on 0 to 100 scale (0 no effect, 100 complete control) after 13 to 15 days; for Plant response rating, Sedge, Umbrella: Flood (flooded paddy test), 13 to 15 days
Method in brief: (§2)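 Ratings are visual, 0–100 (100 = complete control), taken versus untreated controls 13 to 15 days after treatment in the greenhouse. Compound went straight into paddy water held 3 cm above soil, applied to 2-leaf-stage plants of four species.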

rice (Oryza sativa) = experiment: Test B flooded paddy test; details: for Plant response rating, Flood, Rice: 250 g ai/ha, flooded paddy test, visual rating on 0 to 100 scale (0 no effect, 100 complete control) after 13 to 15 days; for Plant response rating, Rice: Flood (flooded paddy test), 13 to 15 days
Method in brief: as §2

[11] = 31 g ai/ha, postemergence, scale 0 to 100, 0 is no effect, 100 is complete control
[12] = postemergence, 100 is complete control
[13] = Postemergence, 125 g ai/ha, scale 0 to 100 (0 no effect, 100 complete control)
[14] = Postemergence, 250 g ai/ha, scale 0 to 100 (0 no effect, 100 complete control)
[15] = 62 g ai/ha, scale of 0 to 100 where 0 is no effect and 100 is complete control
[16] = 125 g ai/ha, scale 0 to 100, 0 is no effect, 100 is complete control
[17] = Flood, 31 g ai/ha, scale 0 to 100 (0 no effect, 100 complete control)

CCCn1c(-c2ccc(F)cc2)ncc(C(=O)C2=C(O)CCCC2=O)c1=O [Compound 102]
Plant response rating, Blackgrass [1, 11]: 0 | Blackgrass plant response rating (0 to 100 scale) [1, 12]: 5 | Plant response rating, Blackgrass [1, 13]: 30 | Plant response rating, Blackgrass [1, 14]: 45 | Plant response rating, Lambsquarters [2, 11]: 95 | Lambsquarters plant response rating (0 to 100 scale) [2, 12]: 98 | Plant response rating, Lambsquarters [2, 13]: 100 | Plant response rating, Lambsquarters [2, 14]: 100 | Plant response rating, Foxtail, Green [3, 11]: 80 | Foxtail, Green plant response rating (0 to 100 scale) [3, 12]: 90 | Plant response rating, Foxtail, Green [3, 13]: 90 | Plant response rating, Foxtail, Green [3, 14]: 95 | Plant response rating, Goosegrass [4, 11]: 55 | Goosegrass plant response rating (0 to 100 scale) [4, 12]: 70 | Plant response rating, Goosegrass [4, 13]: 80 | Plant response rating, Goosegrass [4, 14]: 90 | Surinam Grass plant response rating (0 to 100 scale) [5]: 75 | Plant response rating, Surinam Grass ([5]; 125 g ai/ha): 75 | Plant response rating, Surinam Grass ([5]; 250 g ai/ha): 85 | Plant response rating, Foxtail, Giant [6, 11]: 70 | Foxtail, Giant plant response rating (0 to 100 scale) [6, 12]: 75 | Plant response rating, Foxtail, Giant [6, 13]: 80 | Plant response rating, Foxtail, Giant [6, 14]: 95 | Plant response rating, Johnsongrass [7, 11]: 20 | Johnsongrass plant response rating (0 to 100 scale) [7, 12]: 25 | Plant response rating, Johnsongrass [7, 13]: 60 | Plant response rating, Johnsongrass [7, 14]: 75 | Corn plant response rating (0 to 100 scale) (corn (Zea mays); [12]): 15 | Plant response rating, Corn (corn (Zea mays); [13]): 65 | Plant response rating, Corn (corn (Zea mays); [14]): 70 | Plant response rating, Oat, Wild (wild oat (Avena fatua); [11]): 5 | Oat, Wild plant response rating (0 to 100 scale) (wild oat (Avena fatua); [12]): 15 | Plant response rating, Oat, Wild (wild oat (Avena fatua); [13]): 40 | Plant response rating, Oat, Wild (wild oat (Avena fatua); [14]): 80 | Plant response rating, Pigweed [8, 11]: 70 | Pigweed plant response rating (0 to 100 scale) [8, 12]: 70 | Plant response rating, Pigweed [8, 13]: 95 | Plant response rating, Pigweed [8, 14]: 98 | Ragweed plant response rating (0 to 100 scale) [9]: 80 | Plant response rating, Ragweed ([9]; 125 g ai/ha): 85 | Plant response rating, Ragweed ([9]; 250 g ai/ha): 95 | Plant response rating, Flood, Sedge, Umbrella [10]: 75 | Plant response rating, Sedge, Umbrella [10, 15]: 40 | Plant response rating, Sedge, Umbrella [10, 16]: 65 | Sedge, Umbrella plant response rating [10, 17]: 30 | Plant response rating, Flood, Rice (rice (Oryza sativa)): 35 | Plant response rating, Rice (rice (Oryza sativa); [15]): 15 | Plant response rating, Rice (rice (Oryza sativa); [16]): 20 | Rice plant response rating (rice (Oryza sativa); [17]): 10

COCC(C)n1c(-c2ccccc2)ncc(C(=O)C2=C(O)CCCC2=O)c1=O (centres unmarked) [Compound 107]
Plant response rating, Blackgrass [1, 11]: 0 | Blackgrass plant response rating (0 to 100 scale) [1, 12]: 5 | Plant response rating, Blackgrass [1, 13]: 15 | Plant response rating, Blackgrass [1, 14]: 20 | Plant response rating, Lambsquarters [2, 11]: 90 | Lambsquarters plant response rating (0 to 100 scale) [2, 12]: 100 | Plant response rating, Lambsquarters [2, 13]: 100 | Plant response rating, Lambsquarters [2, 14]: 100 | Plant response rating, Foxtail, Green [3, 11]: 70 | Foxtail, Green plant response rating (0 to 100 scale) [3, 12]: 75 | Plant response rating, Foxtail, Green [3, 13]: 90 | Plant response rating, Foxtail, Green [3, 14]: 98 | Plant response rating, Goosegrass [4, 11]: 75 | Goosegrass plant response rating (0 to 100 scale) [4, 12]: 75 | Plant response rating, Goosegrass [4, 13]: 75 | Plant response rating, Goosegrass [4, 14]: 85 | Surinam Grass plant response rating (0 to 100 scale) [5]: 75 | Plant response rating, Surinam Grass ([5]; 125 g ai/ha): 80 | Plant response rating, Surinam Grass ([5]; 250 g ai/ha): 85 | Plant response rating, Foxtail, Giant [6, 11]: 75 | Foxtail, Giant plant response rating (0 to 100 scale) [6, 12]: 80 | Plant response rating, Foxtail, Giant [6, 13]: 85 | Plant response rating, Foxtail, Giant [6, 14]: 95 | Plant response rating, Johnsongrass [7, 11]: 60 | Johnsongrass plant response rating (0 to 100 scale) [7, 12]: 70 | Plant response rating, Johnsongrass [7, 13]: 70 | Plant response rating, Johnsongrass [7, 14]: 90 | Plant response rating, Corn (corn (Zea mays); [11]): 65 | Corn plant response rating (0 to 100 scale) (corn (Zea mays); [12]): 65 | Plant response rating, Corn (corn (Zea mays); [13]): 75 | Plant response rating, Corn (corn (Zea mays); [14]): 85 | Plant response rating, Oat, Wild (wild oat (Avena fatua); [11]): 0 | Oat, Wild plant response rating (0 to 100 scale) (wild oat (Avena fatua); [12]): 5 | Plant response rating, Oat, Wild (wild oat (Avena fatua); [13]): 20 | Plant response rating, Oat, Wild (wild oat (Avena fatua); [14]): 40 | Plant response rating, Pigweed [8, 11]: 95 | Pigweed plant response rating (0 to 100 scale) [8, 12]: 100 | Plant response rating, Pigweed [8, 13]: 100 | Plant response rating, Pigweed [8, 14]: 100 | Ragweed plant response rating (0 to 100 scale) [9]: 85 | Plant response rating, Ragweed ([9]; 125 g ai/ha): 95 | Plant response rating, Ragweed ([9]; 250 g ai/ha): 98 | Plant response rating, Flood, Sedge, Umbrella [10]: 85 | Plant response rating, Sedge, Umbrella [10, 15]: 60 | Plant response rating, Flood, Rice (rice (Oryza sativa)): 45 | Plant response rating, Rice (rice (Oryza sativa); [15]): 20
